Converted amounts (≈) assume the structure as drawn.
Assays:
[1] = Metabolic stability in rat liver microsomes; type: in vitro ADME; conditions: well-stirred model
Procedure: (§1) Determination of Metabolic Stability in Human and Rat Liver Microsomes
(§2) The incubations were conducted with 2.4 ml of HLM solution (protein content 0.5 mg/ml), 30 μl of the test compound (final concentration 1 μM) and 0.6 ml of the cofactor mixture (═NADPH-generating system composed of 3 IU glucose-6-phosphate dehydrogenase, 14.6 mg glucose-6-phosphate, 1.2 mg NADP) at 37° C. in 100 mM phosphate buffer at pH 7.4. Samples were taken at 6 time points (2-60 min) and precipitated with an equal volume of methanol, and the recovery of the test substances used in the supernatant was determined by LC-MS/MS analysis. The half-life of substance degradation determined therefrom was used to calculate what is called the intrinsic clearance of the substance in the liver microsome preparation. […] In addition, under the assumptions that (i) absorption of the test substance is 100%, and (ii) the first pass is completely reflected by liver microsome metabolism, a maximum oral bioavailability (Fmax) was calculated.

[2] = Solubility in aqueous medium at pH 7.4; type: physicochemical; conditions: aqueous medium, pH 7.4, aqueous buffer
Description: In addition, some compounds have an unusually good solubility, for this active ingredient class, in aqueous medium under physiological conditions (Table 2).

[3] = target: T1, human progesterone receptor B (Homo sapiens, UniProt P06401); assay: Progesterone receptor-antagonistic action in stably transfected SK-N-MC cells with MMTV-LUC reporter (PR-B); type: cell-based; conditions: antagonistic potency against 0.1 nmol/l promegestone, 24 hours, luciferase
T1 construct: expressed in transfected cells; host or cells: SK-N-MC human neuroblastoma cells, stably transfected with pRChPR-B-neo and pMMTV-LUC
T1 sequence (P06401 1-933): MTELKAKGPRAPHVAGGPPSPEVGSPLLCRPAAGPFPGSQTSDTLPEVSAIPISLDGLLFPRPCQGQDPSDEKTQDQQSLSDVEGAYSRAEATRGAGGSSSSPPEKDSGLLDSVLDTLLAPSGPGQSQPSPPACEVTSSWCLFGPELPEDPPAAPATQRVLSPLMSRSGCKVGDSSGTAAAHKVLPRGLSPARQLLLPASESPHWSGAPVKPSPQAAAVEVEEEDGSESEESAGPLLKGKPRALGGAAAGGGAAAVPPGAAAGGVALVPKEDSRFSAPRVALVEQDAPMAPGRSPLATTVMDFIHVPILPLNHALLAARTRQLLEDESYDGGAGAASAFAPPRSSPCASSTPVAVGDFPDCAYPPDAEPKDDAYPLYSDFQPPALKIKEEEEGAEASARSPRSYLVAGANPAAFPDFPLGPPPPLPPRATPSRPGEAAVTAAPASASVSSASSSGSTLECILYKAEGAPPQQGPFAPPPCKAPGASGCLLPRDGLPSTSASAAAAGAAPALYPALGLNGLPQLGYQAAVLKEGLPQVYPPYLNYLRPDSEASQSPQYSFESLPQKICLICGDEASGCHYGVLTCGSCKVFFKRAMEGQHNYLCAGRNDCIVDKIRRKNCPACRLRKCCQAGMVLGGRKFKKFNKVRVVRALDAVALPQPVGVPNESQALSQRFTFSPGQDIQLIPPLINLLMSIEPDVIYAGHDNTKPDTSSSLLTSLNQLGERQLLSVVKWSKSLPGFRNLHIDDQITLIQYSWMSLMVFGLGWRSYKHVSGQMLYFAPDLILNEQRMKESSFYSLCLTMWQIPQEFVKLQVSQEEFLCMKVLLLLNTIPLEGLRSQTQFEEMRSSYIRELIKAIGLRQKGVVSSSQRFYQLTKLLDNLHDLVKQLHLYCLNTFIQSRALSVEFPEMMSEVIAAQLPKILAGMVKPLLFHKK
Procedure: (§3) Determination of Progesterone Receptor-Antagonistic Action in Stable Transfectants of Human Neuroblastoma Cells (SK-N-MC Cells) with the Human Progesterone A or Progesterone B Receptor and an MN-LUC Reporter Construct
(§4) SK-N-MC cells (human neuroblastoma cells) which have been stably transfected with plasmids expressing the human progesterone receptor B (pRChPR-B-neo) or the human progesterone receptor A (pRChPR-A-neo) and a reporter construct (pMMTV-LUC) were incubated for 24 hours either in the absence (negative control) or in the presence of ascending amounts of the particular test compound (0.01 nmol/l, 0.1 nmol/l, 1 nmol/l, 10 nmol/l, 100 nmol/l and […]), in order to determine the agonistic efficacy. As a positive control of the reporter gene induction, the cells were treated with the synthetic gestagen promegestone (0.01 nmol/l, 0.1 nmol/l, 1 nmol/l, 10 nmol/l, 100 nmol/l and […]). To determine the antagonistic activity, the cells were treated with 0.1 nmol/l promegestone and additionally with ascending amounts of the particular test compound (0.01 nmol/l, 0.1 nmol/l, 1 nmol/l, 10 nmol/l, 100 nmol/l and […]). The activity of the reporter gene LUC (LUC=luciferase) was determined in the cell lysates and measured as RLU (relative light units). All measurements are reported as % efficacy and as EC50 and IC50 concentrations.

[4] = Metabolic stability in human liver microsomes; type: in vitro ADME; conditions: 1 μM, well-stirred model
Procedure: as §1
Isolated human liver microsomes (HLM) were used to assess the metabolic stability of compounds of general formula I.
as §2

[5] = target: T2, human progesterone receptor A (Homo sapiens, UniProt P06401); assay: Progesterone receptor-antagonistic action in stably transfected SK-N-MC cells with MMTV-LUC reporter (PR-A); type: cell-based; conditions: antagonistic potency against 0.1 nmol/l promegestone, 24 hours, luciferase
T2 construct: expressed in transfected cells; host or cells: SK-N-MC human neuroblastoma cells, stably transfected with pRChPR-A-neo and pMMTV-LUC
T2 sequence (P06401 1-769 isoform P06401-2): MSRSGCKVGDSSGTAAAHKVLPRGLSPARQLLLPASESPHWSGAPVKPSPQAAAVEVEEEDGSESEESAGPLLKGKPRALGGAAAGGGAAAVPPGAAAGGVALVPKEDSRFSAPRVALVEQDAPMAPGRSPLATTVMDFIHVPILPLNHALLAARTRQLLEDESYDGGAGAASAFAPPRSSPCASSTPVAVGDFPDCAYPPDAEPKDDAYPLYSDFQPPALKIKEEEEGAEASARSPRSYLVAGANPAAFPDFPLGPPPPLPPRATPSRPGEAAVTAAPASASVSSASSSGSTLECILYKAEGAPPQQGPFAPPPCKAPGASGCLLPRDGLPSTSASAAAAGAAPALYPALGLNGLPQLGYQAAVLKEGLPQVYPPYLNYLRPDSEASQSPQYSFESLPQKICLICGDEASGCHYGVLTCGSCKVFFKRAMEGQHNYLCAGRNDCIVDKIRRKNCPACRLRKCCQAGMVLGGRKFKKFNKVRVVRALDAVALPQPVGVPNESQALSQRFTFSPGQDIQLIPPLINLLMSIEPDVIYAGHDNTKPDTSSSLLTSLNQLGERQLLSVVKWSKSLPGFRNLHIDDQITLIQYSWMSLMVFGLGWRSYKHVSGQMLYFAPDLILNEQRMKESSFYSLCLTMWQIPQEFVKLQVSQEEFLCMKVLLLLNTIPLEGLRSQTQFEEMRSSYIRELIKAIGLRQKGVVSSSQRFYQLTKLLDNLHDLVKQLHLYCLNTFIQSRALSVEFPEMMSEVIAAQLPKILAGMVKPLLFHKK
Procedure: as §3, §4

| Structure (SMILES) | Predicted clearance [l/h/kg] Rat [1] | solubility [2] | IC50 [3] | Predicted clearance [l/h/kg] Human [4] | IC50 [5] |
| --- | --- | --- | --- | --- | --- |
| C=Cc1ccc([C@H]2C[C@@]3(C)[C@@H](CC[C@@]3(O)C(F)(F)C(F)(F)F)[C@@H]3CCC4=CC(=O)CCC4=C32)cc1 [Example 1, (8S,11R,13S,14S,17S)-17-hydroxy-13-methyl-17-pentafluoroethyl-11-(4-vinylphenyl)-1,2,6,7,8,11,12,13,14,15,16,17-dodecahydrocyclopenta[a]phenanthren-3-one] | 1.9 L/h/kg | 6 µg/mL (≈ 12.2 µM) | 0.012 nM | 0.90 L/h/kg | – |
| CCOC(=O)CCNC(=O)NC/C=C/c1ccc([C@H]2C[C@@]3(C)C(CC[C@@]3(O)C(F)(F)C(F)(F)F)C3CCC4=CC(=O)CCC4=C32)cc1 (stereo partly drawn) [Example 49, (3-{(E)-3-[4-((8S,11R,13S,14S,17S)-17-hydroxy-13-methyl-3-oxo-17-pentafluoroethyl-2,3,6,7,8,11,12,13,14,15,16,17-dodecahydro-1H-cyclopenta[a]phenanthren-11-yl)phenyl]allyl}ureido)propionic acid ethyl ester] | – | – | 0.3 nM | – | 0.1 nM |
| C[C@]12C[C@H](c3ccc(/C=C/CNC(=O)NCCC(=O)O)cc3)C3=C4CCC(=O)C=C4CCC3C1CC[C@@]2(O)C(F)(F)C(F)(F)F (stereo partly drawn) [Example 50, (3-{(E)-3-[4-((8S,11R,13S,14S,17S)-17-hydroxy-13-methyl-3-oxo-17-pentafluoroethyl-2,3,6,7,8,11,12,13,14,15,16,17-dodecahydro-1H-cyclopenta[a]phenanthren-11-yl)phenyl]allyl}ureido)propionic acid] | – | – | 3 nM | – | 8 nM |
| CCOC(=O)CNC(=O)NC/C=C/c1ccc([C@H]2C[C@@]3(C)C(CC[C@@]3(O)C(F)(F)C(F)(F)F)C3CCC4=CC(=O)CCC4=C32)cc1 (stereo partly drawn) [Example 51, 3-(3-{(E)-3-[4-((8S,11R,13S,14S,17S)-17-hydroxy-13-methyl-3-oxo-17-pentafluoroethyl-2,3,6,7,8,11,12,13,14,15,16,17-dodecahydro-1H-cyclopenta[a]phenanthren-11-yl)phenyl]allyl}ureido)acetic acid ethyl ester] | – | – | 0.1 nM | – | 0.1 nM |
| C[C@]12C[C@H](c3ccc(/C=C/CNC(=O)NCC(=O)O)cc3)C3=C4CCC(=O)C=C4CCC3C1CC[C@@]2(O)C(F)(F)C(F)(F)F (stereo partly drawn) [Example 52, 3-(3-{(E)-3-[4-((8S,11R,13S,14S,17S)-17-hydroxy-13-methyl-3-oxo-17-pentafluoroethyl-2,3,6,7,8,11,12,13,14,15,16,17-dodecahydro-1H-cyclopenta[a]phenanthren-11-yl)phenyl]allyl}ureido)acetic acid] | – | – | 2 nM | – | 3 nM |
| C[C@]12C[C@H](c3ccc(/C=C/CNC(=O)Nc4ccc(Cl)cc4)cc3)C3=C4CCC(=O)C=C4CC[C@H]3[C@@H]1CC[C@@]2(O)C(F)(F)C(F)(F)F [Example 53, 1-(4-chlorophenyl)-3-{(E)-3-[4-((8S,11R,13S,14S,17S)-17-hydroxy-13-methyl-3-oxo-17-pentafluoroethyl-2,3,6,7,8,11,12,13,14,15,16,17-dodecahydro-1H-cyclopenta[a]phenanthren-11-yl)phenyl]allyl}urea] | – | – | 0.2 nM | – | 0.1 nM |
| CCOC(=O)c1ccc(NC(=O)NC/C=C/c2ccc([C@H]3C[C@@]4(C)[C@@H](CC[C@@]4(O)C(F)(F)C(F)(F)F)[C@@H]4CCC5=CC(=O)CCC5=C43)cc2)cc1 [Example 55, 4-(3-{(E)-3-[4-((8S,11R,13S,14S,17S)-17-hydroxy-13-methyl-3-oxo-17-pentafluoroethyl-2,3,6,7,8,11,12,13,14,15,16,17-dodecahydro-1H-cyclopenta[a]phenanthren-11-yl)phenyl]allyl}ureido)benzoic acid ethyl ester] | – | – | 0.09 nM | – | 0.1 nM |
| C[C@]12C[C@H](c3ccc(/C=C/CNC(=O)Nc4ccc(C(=O)O)cc4)cc3)C3=C4CCC(=O)C=C4CC[C@H]3[C@@H]1CC[C@@]2(O)C(F)(F)C(F)(F)F [Example 56, 4-(3-{(E)-3-[4-((8S,11R,13S,14S,17S)-17-hydroxy-13-methyl-3-oxo-17-pentafluoroethyl-2,3,6,7,8,11,12,13,14,15,16,17-dodecahydro-1H-cyclopenta[a]phenanthren-11-yl)phenyl]allyl}ureido)benzoic acid] | – | – | 1.9 nM | – | 0.9 nM |
| C=CCNC(=O)NC/C=C/c1ccc([C@H]2C[C@@]3(C)[C@@H](CC[C@@]3(O)C(F)(F)C(F)(F)F)[C@@H]3CCC4=CC(=O)CCC4=C32)cc1 [Example 57, 1-allyl-3-{(E)-3-[4-((8S,11R,13S,14S,17S)-17-hydroxy-13-methyl-3-oxo-17-pentafluoroethyl-2,3,6,7,8,11,12,13,14,15,16,17-dodecahydro-1H-cyclopenta[a]phenanthren-11-yl)phenyl]allyl}urea] | – | – | 0.1 nM | – | 0.09 nM |
| C[C@]12C[C@H](c3ccc(CO)cc3)C3=C4CCC(=O)C=C4CC[C@H]3[C@@H]1CC[C@@]2(O)C(F)(F)C(F)(F)F [Ref. 1, (8S,11R,13S,14S,17S)-17-hydroxy-11-[4-(hydroxymethyl)phenyl]-13-methyl-17-pentafluoroethyl-1,2,6,7,8,11,12,13,14,15,16,17-dodecahydrocyclopenta[a]phenanthren-3-one, reference compound] | 0.8 L/h/kg | – | 0.8 nM | 0.7 L/h/kg | 0.7 nM |

Reference: US9156877B2, “17-hydroxy-17-pentafluorethyl-estra-4,9(10)-dien-11-benzylidene derivatives, methods for the production thereof and use thereof for treating diseases” (Bayer Intellectual Property GmbH, priority 2009, dated 2015)
